Laboratory results reported in patent US20230312528A1, “2-OXO-IMIDAZOLIDINE-4-CARBOXAMIDES AS NAV1.8 INHIBITORS” (Merck Sharp & Dohme LLC, priority 2020, published 2023).

Molecular target: human NaV1.8 (Homo sapiens (Human), UniProt Q9Y5Y9)
Experiment: Nav1.8 Qube automated patch-clamp assay
Type: cell-based
Conditions: human NaV1.8 stably expressed in HEK 293 cells; automated 384-well patch-clamp; resting or inactivated state not specified
Method: Compounds were tested on human NaV1.8 and NaV1.5 channels stably expressed in human embryo kidney (HEK) 293 cells. Sodium current measurements on Qube® were conducted as follows: automated 384-well patch-clamp assays on the Qube® platform (Sophion Biosciences) were used to measure the inhibition of sodium flow through human NaV1.8 and NaV1.5 channels. Whole-cell voltage-clamp recordings were performed in QChips® (Sophion Biosciences) at room temperature. NaV1.8 current measurements on Qube® were obtained as follows: NaV1.8 currents were elicited with a 10 second 1 Hertz (Hz) pulse train from a holding potential of −90 millivolts (mV), delivered to the cells once per minute in the control condition (DMSO only) and after compound addition. The 1 hertz pulse train stimulation consisted of ten test pulses to 10 millivolt (mV) for 20 milliseconds (ms), each of which was followed by a 980 millisecond repolarization to −67 millivolts. At the end of the 10 second pulse train stimulation, a 5 second hyperpolarization step to −100 millivolt (mV) was used to recover NaV1.8 from fast inactivation. The peak currents elicited by the 1st and 10th test pulses were used to determine IC50 values for resting inhibition and inactivated state inhibition. NaV1.5 current measurements on Qube® were obtained as follows: NaV1.5 currents were elicited with a 20 second 3 Hertz pulse train in the control condition (DMSO only) and after compound addition. The pulse train consisted of sixty 20 millisecond test pulses to 0 millivolt from a holding potential of −80 millivolt (mV). The average peak currents elicited by the last 3 test pulses were used to determine IC50 values for NaV1.5 inhibition.
The following buffers were used for the Qube® recordings: External buffer for NaV1.8 Qube® recording: 150 NaCl, 2 CaCl2, 5 KCl, 1 Mg Cl2, 10 HEPES, 12 Dextrose; External buffer for Qube® NaV1.5 recording: 120 N-Methyl-D-Glucamine, 40 NaCl, 1 KCl, 2.7 CaCl2, 5 HEPES, 0.5 MgCl2; and Internal buffer for Qube® recording: 120 CsF, 30 CsCl, 10 EGTA, 5 HEPES, 5 NaF, 2 MgCl2.
For all Qube® experiments offline analysis was used to determine percent inhibition as a function of drug concentration. IC50 values were determined by fitting to the Hill equation.

Sequence of human NaV1.8 (Q9Y5Y9 whole entry): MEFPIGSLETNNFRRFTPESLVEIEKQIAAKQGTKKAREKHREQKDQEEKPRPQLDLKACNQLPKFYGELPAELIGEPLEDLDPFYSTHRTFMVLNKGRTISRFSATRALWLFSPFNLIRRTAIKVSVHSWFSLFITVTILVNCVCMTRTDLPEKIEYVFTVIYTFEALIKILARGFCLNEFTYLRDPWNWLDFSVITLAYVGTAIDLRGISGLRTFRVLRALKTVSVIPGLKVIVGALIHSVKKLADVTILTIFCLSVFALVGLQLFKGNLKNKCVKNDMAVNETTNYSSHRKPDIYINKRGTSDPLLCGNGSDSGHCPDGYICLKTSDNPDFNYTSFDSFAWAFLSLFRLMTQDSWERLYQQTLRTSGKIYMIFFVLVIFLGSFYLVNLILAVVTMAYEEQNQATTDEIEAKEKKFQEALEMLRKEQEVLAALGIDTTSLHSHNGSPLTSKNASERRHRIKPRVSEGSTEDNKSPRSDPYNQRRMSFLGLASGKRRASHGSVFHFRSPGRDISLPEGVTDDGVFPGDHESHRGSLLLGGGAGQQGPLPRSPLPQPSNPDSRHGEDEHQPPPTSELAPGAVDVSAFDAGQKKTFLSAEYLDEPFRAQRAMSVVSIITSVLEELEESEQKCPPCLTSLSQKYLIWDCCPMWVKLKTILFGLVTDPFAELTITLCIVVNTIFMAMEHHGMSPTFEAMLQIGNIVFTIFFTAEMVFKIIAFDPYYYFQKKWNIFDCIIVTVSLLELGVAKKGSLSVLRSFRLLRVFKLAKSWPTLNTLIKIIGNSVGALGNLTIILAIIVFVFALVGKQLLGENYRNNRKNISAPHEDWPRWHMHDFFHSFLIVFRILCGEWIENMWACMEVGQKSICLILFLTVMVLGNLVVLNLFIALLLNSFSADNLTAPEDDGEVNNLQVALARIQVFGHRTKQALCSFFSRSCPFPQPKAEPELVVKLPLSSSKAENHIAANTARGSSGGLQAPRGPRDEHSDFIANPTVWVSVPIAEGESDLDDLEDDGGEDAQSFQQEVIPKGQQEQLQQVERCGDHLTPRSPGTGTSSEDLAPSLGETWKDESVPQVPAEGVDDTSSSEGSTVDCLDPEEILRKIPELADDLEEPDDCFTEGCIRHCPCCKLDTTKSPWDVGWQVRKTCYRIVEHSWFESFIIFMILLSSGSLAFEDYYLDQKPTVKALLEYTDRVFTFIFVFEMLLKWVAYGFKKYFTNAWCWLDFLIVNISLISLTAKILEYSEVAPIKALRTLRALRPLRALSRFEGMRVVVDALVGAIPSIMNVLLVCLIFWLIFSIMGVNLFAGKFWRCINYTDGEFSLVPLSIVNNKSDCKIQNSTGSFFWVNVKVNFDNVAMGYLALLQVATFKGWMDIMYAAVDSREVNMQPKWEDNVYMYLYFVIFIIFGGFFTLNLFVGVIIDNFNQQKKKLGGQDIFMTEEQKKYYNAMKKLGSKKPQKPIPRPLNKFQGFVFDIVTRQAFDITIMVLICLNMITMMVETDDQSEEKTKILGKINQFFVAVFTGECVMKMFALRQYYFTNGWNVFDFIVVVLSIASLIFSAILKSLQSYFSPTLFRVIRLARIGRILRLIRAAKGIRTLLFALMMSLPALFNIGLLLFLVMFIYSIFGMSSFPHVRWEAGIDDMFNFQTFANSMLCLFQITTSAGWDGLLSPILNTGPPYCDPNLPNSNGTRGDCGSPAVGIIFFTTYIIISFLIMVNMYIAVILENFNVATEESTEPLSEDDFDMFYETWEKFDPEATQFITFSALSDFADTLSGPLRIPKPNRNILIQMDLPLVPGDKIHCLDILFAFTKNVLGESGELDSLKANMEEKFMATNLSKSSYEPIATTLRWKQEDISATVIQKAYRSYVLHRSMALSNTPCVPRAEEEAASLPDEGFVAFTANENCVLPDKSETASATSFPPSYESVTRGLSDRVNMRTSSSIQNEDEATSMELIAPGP

| Compound | IC50 [nM] |
| --- | --- |
| O=C1NC[C@@H](C(=O)NC(c2ccc(C(F)(F)F)nc2)c2csc(C(F)(F)F)n2)N1 (mixture of isomers) [Example 19, (S)-2-oxo-N—((R and S)-(6-(trifluoromethyl)pyridin-3-yl)(2-(trifluoromethyl)thiazol-4-yl)methyl)imidazolidine-4-carboxamide] | 116 |
| O=C1NC[C@@H](C(=O)NC(COc2ccc(C(F)(F)F)nc2)c2ccc(F)c(Cl)c2)N1 (mixture of isomers) [Example 53, (4S)-N-(1-(3-chloro-4-fluorophenyl)-2-((6-(trifluoromethyl)pyridin-3-yl)oxy)ethyl)-2-oxoimidazolidine-4-carboxamide] | 219 |
| O=C1NC[C@@H](C(=O)NC(c2ccc(Cl)cc2)c2ccc3ncsc3c2)N1 (mixture of isomers) [Example 81, (4S)-N-(benzo[d]thiazol-6-yl(4-chlorophenyl)methyl)-2-oxoimidazolidine-4-carboxamide] | 54 |
| O=C1NC[C@@H](C(=O)NC(COc2ccc(F)c(Cl)c2)c2ccc(F)c(Cl)c2)N1 (single isomer, unassigned) [Example 1A, (S)—N—((R or S)-2-(3-chloro-4-fluorophenoxy)-1-(3-chloro-4-fluorophenyl)ethyl)-2-oxoimidazolidine-4-carboxamide] | 4 |
| O=C1NC[C@@H](C(=O)NC(COc2ccc(F)c(Cl)c2)c2ccc(F)c(Cl)c2)N1 (single isomer, unassigned) [Example 1B, (S)—N—((R or S)-2-(3-chloro-4-fluorophenoxy)-1-(3-chloro-4-fluorophenyl)ethyl)-2-oxoimidazolidine-4-carboxamide] | 22 |
| CN1C(=O)NCC1C(=O)NC(c1ccc(Cl)cc1)c1ccc(Cl)cc1 (single isomer, unassigned) [Example 2A, (R or S)—N-(bis(4-chlorophenyl)methyl)-3-methyl-2-oxoimidazolidine-4-carboxamide] | 34 |
| CN1C(=O)NCC1C(=O)NC(c1ccc(Cl)cc1)c1ccc(Cl)cc1 (single isomer, unassigned) [Example 2B, (R or S)—N-(bis(4-chlorophenyl)methyl)-3-methyl-2-oxoimidazolidine-4-carboxamide] | 8100 |
| O=C1NC[C@@H](C(=O)NC(c2cnc(C(F)(F)F)c(Cl)c2)c2ccc(Cl)c(C(F)F)n2)N1 (single isomer, unassigned) [Example 3A, (S)—N—((R or S)-(5-chloro-6-(difluoromethyl)pyridin-2-yl)(5-chloro-6-(trifluoromethyl)pyridin-3-yl)methyl)-2-oxoimidazolidine-4-carboxamide] | 9.7 |
| O=C1NC[C@@H](C(=O)NC(c2cnc(C(F)(F)F)c(Cl)c2)c2ccc(Cl)c(C(F)F)n2)N1 (single isomer, unassigned) [Example 3B, (S)—N—((R or S)-(5-chloro-6-(difluoromethyl)pyridin-2-yl)(5-chloro-6-(trifluoromethyl)pyridin-3-yl)methyl)-2-oxoimidazolidine-4-carboxamide] | 2.7 |
| O=C1NC[C@@H](C(=O)NC(c2ccc(OC(F)(F)F)cc2)c2ccc(F)c(C(F)(F)F)n2)N1 (single isomer, unassigned) [Example 7A, (S)—N—((R or S)-(5-fluoro-6-(trifluoromethyl)pyridin-2-yl)(4-(trifluoromethoxy)phenyl)-methyl)-2-oxoimidazolidine-4-carboxamide] | 1.1 |
| O=C1NC[C@@H](C(=O)NC(c2ccc(OC(F)(F)F)cc2)c2ccc(F)c(C(F)(F)F)n2)N1 (single isomer, unassigned) [Example 7B, (S)—N—((R or S)-(5-fluoro-6-(trifluoromethyl)pyridin-2-yl)(4-(trifluoromethoxy)phenyl)methyl)-2-oxo-imidazolidine-4-carboxamide] | 44 |
| O=C1NC[C@@H](C(=O)NC(c2ccc(OC(F)(F)F)cc2)c2cccc(Cl)c2)N1 (single isomer, unassigned) [Example 9A, (4S)—N—((R or S)-(3-chlorophenyl)(4-(trifluoromethoxy)phenyl)methyl)-2-oxoimidazolidine-4-carboxamide] | 2 |
| O=C1NC[C@@H](C(=O)NC(c2ccc(OC(F)(F)F)cc2)c2cccc(Cl)c2)N1 (single isomer, unassigned) [Example 9B, (4S)—N—((R or S)-(3-chlorophenyl)(4-(trifluoromethoxy)-phenyl)methyl)-2-oxoimidazolidine-4-carboxamide] | 2 |
| CN1CC(C(=O)NC(c2ccc(Cl)cc2)c2ccc(Cl)cc2)NC1=O (single isomer, unassigned) [Example 10A, (R or S)-N-[bis(4-chlorophenyl)methyl]-1-methyl-2-oxoimidazolidine-4-carboxamide] | 1070 |
| CN1CC(C(=O)NC(c2ccc(Cl)cc2)c2ccc(Cl)cc2)NC1=O (single isomer, unassigned) [Example 10B, (R or S)-N-[bis(4-chlorophenyl)methyl]-1-methyl-2-oxoimidazolidine-4-carboxamide] | 504 |

Further lines, results first:

| IC50 [nM] | Compound |
| --- | --- |
| 203 | O=C1NC[C@@H](C(=O)NC(c2ccc(F)c(Cl)c2)c2cc(C(F)(F)F)[nH]n2)N1 (single isomer, unassigned) [Example 4A, (S)—N—((R or S)-(3-chloro-4-fluorophenyl)(5-(trifluoromethyl)-1H-pyrazol-3-yl)methyl)-2-oxoimidazolidine-4-carboxamide] |
| 6.2 | O=C1NC[C@@H](C(=O)NC(c2ccc(F)c(Cl)c2)c2cc(C(F)(F)F)[nH]n2)N1 (single isomer, unassigned) [Example 4B, (S)—N—((R or S)-(3-chloro-4-fluorophenyl)(5-(trifluoromethyl)-1H-pyrazol-3-yl)methyl)-2-oxoimidazolidine-4-carboxamide] |
| 1.6 | O=C1NC[C@@H](C(=O)NC(c2ccc(F)c(Cl)c2F)C2CCN(C3(C(F)(F)F)CC3)CC2)N1 (single isomer, unassigned) [Example 5A, (S)—N—((R or S)-(3-chloro-2,4-difluorophenyl)(1-(1-(trifluoromethyl)-cyclopropyl)piperidin-4-yl)methyl)-2-oxoimidazolidine-4-carboxamide] |
| 74 | O=C1NC[C@@H](C(=O)NC(c2ccc(F)c(Cl)c2F)C2CCN(C3(C(F)(F)F)CC3)CC2)N1 (single isomer, unassigned) [Example 5B, (S)—N—((R or S)-(3-chloro-2,4-difluorophenyl)(1-(1-(trifluoromethyl)-cyclopropyl)piperidin-4-yl)methyl)-2-oxoimidazolidine-4-carboxamide] |
| 1140 | O=C1NC[C@@H](C(=O)NC(c2ccc(F)c(Cl)c2F)[C@@H]2CC[C@@H](C(F)(F)F)CO2)N1 (single isomer, unassigned) [Example 8A, (S)—N—((R or S)-(3-chloro-2,4-difluorophenyl)((trans)-5-(trifluoromethyl)tetrahydro-2H-pyran-2-yl)methyl)-2-oxoimidazolidine-4-carboxamide] |
| 8.4 | O=C1NC[C@@H](C(=O)NC(c2ccc(F)c(Cl)c2F)[C@@H]2CC[C@@H](C(F)(F)F)CO2)N1 (single isomer, unassigned) [Example 8B, (S)—N—((R or S)-(3-chloro-2,4-difluorophenyl)((trans)-5-(trifluoromethyl)tetrahydro-2H-pyran-2-yl)methyl)-2-oxoimidazolidine-4-carboxamide] |
| 23 | O=C1NC[C@@H](C(=O)NC(c2ccc(F)c(Cl)c2F)[C@@H]2CC[C@@H](C(F)(F)F)CO2)N1 (single isomer, unassigned) [Example 8C, (S)—N—((R or S)-(3-chloro-2,4-difluorophenyl)((trans)-5-(trifluoromethyl)tetrahydro-2H-pyran-2-yl)methyl)-2-oxoimidazolidine-4-carboxamide] |
| 50 | O=C1NC[C@@H](C(=O)NC(c2ccc(F)c(Cl)c2)c2ccc(F)c(OCC(F)(F)F)n2)N1 (single isomer, unassigned) [Example 11A, (4S)-N-{((R or S)-3-chloro-4-fluorophenyl)[5-fluoro-6-(2,2,2-trifluoro-ethoxy)pyridin-2-yl]methyl}-2-oxoimidazolidine-4-carboxamide] |
| 3.9 | O=C1NC[C@@H](C(=O)NC(c2ccc(F)c(Cl)c2)c2ccc(F)c(OCC(F)(F)F)n2)N1 (single isomer, unassigned) [Example 11B, (4S)-N-{((R or S)-3-chloro-4-fluoro-phenyl)[5-fluoro-6-(2,2,2-trifluoro-ethoxy)pyridin-2-yl]methyl}-2-oxoimidazolidine-4-carboxamide] |
